Patent US9629887B1, “Control of acid reflux with botanicals” (Biotics Research Corporation, priority 2014, dated 2017)
Counter-ions that a name gives are not always drawn.

Tested on: patients with acid reflux / GI tract symptoms
Test: Case histories of patients treated with HCl-Ease capsules
Format: in vivo, human
Settings: previous treatment prescribed elsewhere, patient history
Excerpt: The invention is further illustrated by the following case histories, in which the inventive capsules as described above as the specific embodiment are referred to as HCl-Ease.

Row | SMILES | outcome of other treatment as stated by patient
1 | C[N+](C)(C)CC(=O)O [Betaine HCL] | greatly increased their symptoms
2 | COc1ccc2[nH]c([S+]([O-])Cc3ncc(C)c(OC)c3C)nc2c1 (centres unmarked) [Prilosec] | didn't help much
